Test results published in patent US6057371A, “Sigma receptor ligands and the use thereof” (Virginia Commonwealth University, priority 1992, dated 2000).
Where a name gives a salt, the structure may show the parent alone. Read-outs that look alike come from different tables or passages of the source.

Columns and labels:
[1] = molecular target: T1, sigma-2 binding site (Cavia porcellus, UniProt H0V073); assay: biochemical; set-up: species or system guinea pig
T1 construct: Guinea pig whole membrane preparations (P2 microsomal fraction); from tissue; host or cells: guinea pig membranes (P2 microsomal fraction), as described by Weber et al; brain inferred from the sister test b489
T1 sequence (H0V073 1-176): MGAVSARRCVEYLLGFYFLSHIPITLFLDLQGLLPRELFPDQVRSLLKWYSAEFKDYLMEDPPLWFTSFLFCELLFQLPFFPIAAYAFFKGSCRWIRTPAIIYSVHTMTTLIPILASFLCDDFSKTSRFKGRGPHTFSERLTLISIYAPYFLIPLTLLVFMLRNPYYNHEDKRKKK
Method: For the standard equilibrium assay, the mixtures were incubated for 30 min. at room temperature, then filtered and the radioactivity determined as described above.

[2] = molecular target: T2, sigma-1 binding site (Cavia porcellus, UniProt Q60492); assay: biochemical; set-up: species or system guinea pig; details: for sigma-2/sigma-1 selectivity: Example 8
T2 construct: Guinea pig whole membrane preparations (P2 microsomal fraction); from tissue; host or cells: guinea pig membranes (P2 microsomal fraction), as described by Weber et al; brain inferred from the sister test b489
Method: [^3 H]DTG was purchased from DuPont/NEN.
The radioactivity on the filters was determined by scintillation spectrometry at an efficiency of about 50% using Cytoscint (ICN) scintillation fluid.

[3] = molecular target: T3, 5-HT1A receptor (Rattus norvegicus, UniProt P19327); assay: biochemical; type: binding; set-up: 47: 529-540 (1986); from tissue; host or cells: brain tissue, inferred from the cited method (rat frontal cortex)
T3 sequence (P19327 1-422): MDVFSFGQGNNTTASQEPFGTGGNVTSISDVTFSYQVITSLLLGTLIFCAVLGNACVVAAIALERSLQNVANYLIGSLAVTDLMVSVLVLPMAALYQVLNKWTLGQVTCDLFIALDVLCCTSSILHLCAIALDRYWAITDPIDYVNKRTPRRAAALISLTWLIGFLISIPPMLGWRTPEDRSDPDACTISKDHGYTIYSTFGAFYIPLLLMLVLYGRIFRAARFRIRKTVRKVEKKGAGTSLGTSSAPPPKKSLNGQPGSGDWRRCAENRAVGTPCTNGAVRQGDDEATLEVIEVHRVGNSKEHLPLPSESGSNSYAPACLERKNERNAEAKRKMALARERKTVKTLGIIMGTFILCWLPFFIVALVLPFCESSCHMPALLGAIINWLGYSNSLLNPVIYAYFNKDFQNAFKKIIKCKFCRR
Method: (§1) Further sigma receptor binding assays against [^3 H]DTG and 5HT-1A binding assays were conducted according to the procedure outlined in the previous examples.

[4] = molecular target: sigma receptor; assay: Sigma receptor binding, [^3 H]DTG, brain membranes (both sigma-1 and sigma-2 sites); set-up: species or system guinea pig; details: for IC50: Table 6, [^3 H]DTG; for Ki: running text, Examples 5 and 6, read-out: sigma receptor Ki
Method: Sigma receptor binding assays using guinea pig brain membrane homogenates and the radioligand [^3 H]DTG were conducted as described by Weber et al.. […] Briefly, frozen whole guinea-pig brains (Biotrol, Indianapolis, Ind.) were homogenized in 10 volumes (w/v) of ice-cold 320 mM sucrose using a Brinkman polytron. The homogenate was centrifuged at 1,000× g for 20 minutes at 4° C. The supernatant was centrifuged at 20,000× g for 20 minutes at 4° C. The resulting pellet was resuspended in 10 initial volumes of 50 mM Tris/HCl buffer at pH 7.4 and centrifuged at 20,000× g for 20 minutes at 4° C. The resulting pellet was resuspended in 5 initial volumes ice-cold 50 mM Tris/Hcl […], and the final volume was adjusted to yield a protein concentration of 3 mg/ml. Aliquots of 20-ml were stored at -70° C. until used, with no detectable loss of binding.
The protein concentration in the 1-ml final incubation volume was 800 ug/ml, corresponding to 32 mg of brain tissue (original wet weight) and to a tissue concentration within the linear range for specific binding. […] Incubations were terminated after 90 minutes at room temperature by addition of 4 ml of ice-cold 50 mM Tris/HCl (pH 7.4) and rapid filtration of the membrane suspension through Whatman GF/B glass-fiber filters under vacuum, using a 48-well cell harvester (Brandel). The filters were washed 2 times with 4 ml of 50 mM Tris/HCl (pH 7.4). Each filter was suspended in 10 ml Cytoscint (ICI), and radioactivity was measured by liquid scintillation spectrometry at a counting efficiency of approximately 50%. IC50 values were determined by non-linear regression analyis.
as §1
Radioligand Binding. […] Briefly, membranes (P2 microsomal fraction) were diluted 1:3 with 50 mM Tris HCl (pH 7.4) and 0.4 mL was combined with 50 μL [^3 H]DTG (1-2 nM final concentration) and 50 μL of competing drug or buffer. After 90 min at room temperature, incubation was terminated by rapid filtration under vacuum through Whatman GF/B glass fiber filters using a Brandel 48-well cell harvester. Filters were washed three times with 5 mL of cold Tris HCl buffer and each filter was suspended in 5 mL of Cytoscint (ICN Biomedical). Radioactivity was measured by liquid scintillation spectrometry at a counting efficiency of 50%.

[5] = SIGMA-2 KI vs. 3H-DTG + PENTAZOCINE MEAN
[6] = Table 10, read-out: SIGMA-1 KI vs. 3H-PENTAZOCINE MEAN
[7] = Table 10, read-out: SIGMA-2 KI vs. 3H-DTG + PENTAZOCINE MEAN
[8] = Table 6, read-out: 5HT-1A (nM) MEAN
[9] = less than about 0.1, see Table 10
[10] = SIGMA-1 KI vs. 3H-PENTAZOCINE MEAN

T2 sequence (Q60492 whole entry): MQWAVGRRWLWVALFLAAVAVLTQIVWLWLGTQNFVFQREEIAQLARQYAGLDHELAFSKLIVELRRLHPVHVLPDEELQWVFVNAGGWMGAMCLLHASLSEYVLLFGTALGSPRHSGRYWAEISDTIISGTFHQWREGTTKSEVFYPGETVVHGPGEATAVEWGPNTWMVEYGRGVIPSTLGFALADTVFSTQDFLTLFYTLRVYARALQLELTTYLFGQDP

## C[C@@H]1CN(CCCn2c3ccccc3c3ccccc32)C[C@H](C)N1 [Rimoazole, reference compound]
[1]; [5]
  Ki: 265 nM

## O=C(c1ccccc1)N1CCN(CCCCc2ccccc2)CC1 [Compound 80, N-4(4-phenylbutyl)-N'-benzoylpiperazine]
[2]; [6]
  Ki: 71.8 nM
[1]; [7]
  Ki: 965 nM

## Clc1ccc(N2CCN(CCCc3ccccc3)CC2)cc1 [Compound 78]
[3]; [8]
  IC50: 98.4 nM
[4]
  IC50: 3.01 nM

## COc1ccc(OC)c(CC(C)NCCCCc2ccccc2)c1 (stereo not drawn) [Compound 65]
[3]; [8]
  IC50: 182 nM
[4]
  IC50: 72.9 nM

## c1ccc(CCCCNCCCCc2ccccc2)cc1 [Compound 73]
[3]; [8]
  IC50: 55.7 nM
[4]
  IC50: 6.98 nM

## CN(C)CCCCCc1ccccc1 [Compound 125, N,N-Dimethyl-5-phenylpentylamine]
[2]
  sigma-2/sigma-1 selectivity: 96
[2]; [6]
  Ki: 10.4 nM
[2]; Table 10, sigma-1/sigma-2
  S1/S2 Ratio: 0.011
[2]; [9]
  IC50 ratio of sigma-1/sigma-2 (sigma-1 selective compounds): less than 0.1
[1]; [7]
  Ki: 965 nM
[4]
  IC50: 38.8 nM
  Ki: 35 nM

## c1ccc(CCCNCCCC2CCCCC2)cc1 [Compound 92, N-(3-Cyclohexylpropyl)-3-phenylpropylamine Hydrochloride]
[3]; [8]
  IC50: 26.3 nM
[4]
  IC50: 2.99 nM
  Ki: 2.4 nM

## CN1CCN(CC/C=C/c2ccccc2)CC1 [Compound 103, N-(4-phenyl-3(E)-butenyl)-N'-methylpiperazine]
[2]
  IC50 ratio of sigma-1/sigma-2 (sigma-1 selective compounds): less than 0.1
[2]; SIGMA-1 KI vs. 3H-P[…]
  Ki: 28.7 nM
[2]; guinea pig, microsomes
  S1/S2 Ratio: 0.011
[1]; [7]
  Ki: 2540 nM
[4]
  IC50: 75.2 nM

## CN(C)CCCN1c2ccccc2Sc2ccc(Cl)cc21 [Chlorpromazine, reference compound]
[2]; [10]
  Ki: 336 nM
[2]; Table 11, sigma-1/sigma-2
  S1/S2 Ratio: 0.471
[1]; [5]
  Ki: 714 nM

## COc1cc(CC(C)NCCCCc2ccccc2)c(OC)cc1Br (stereo not drawn) [Compound 66]
[3]; [8]
  IC50: 272 nM
[4]
  IC50: 45.1 nM

## c1ccc(CCCCCNCC2CCCCC2)cc1 [Compound 93]
[3]; [8]
  IC50: 597 nM
[4]; Example 6
  change in sigma affinity, words: binds with twice the affinity
[4]
  IC50: 1.4 nM
  Ki: 1.2 nM

## OC(CCCN1CCN(c2ncc(F)cn2)CC1)c1ccc(F)cc1 (stereo not drawn) [BMY-14802, reference compound]
[1]; [7]
  Ki: 133 nM

## CC(C)=CCN(C)[C@@H](C)Cc1ccccc1 [Compound 114]
[3]; [8]
  IC50: 34000 nM
[4]
  IC50: 6.71 nM

## O=C1c2ccccc2C(=O)N1CCCCCN1CCN(c2ccccc2)CC1 [Compound 98]
[3]; [8]
  IC50: 2.23 nM
[4]
  IC50: 6.18 nM

## C[C@@H](Cc1ccccc1)N(C)CCc1ccccc1 [Compound 36]
[3]; Table 5
  Ratio 5-HT1A /σ: 239
[3]; Table 5, read-out: 5-HT1A IC50
  IC50: 1630 nM

## CC(C(O)c1ccc(O)cc1)N1CCC(Cc2ccccc2)CC1 (stereo not drawn) [Ifenprodil, reference compound]
[1]; [5]
  Ki: 2.39 nM

## CCCN1CCC[C@H](c2cccc(O)c2)C1 [(+)3-PPP, reference compound]
[2]; [10]
  Ki: 47.7 nM
[2]; Table 11, sigma-1/sigma-2
  S1/S2 Ratio: 0.097
[1]; [5]
  Ki: 493 nM

## CNCCCCCC1CCCCC1 [Compound 127, N-methyl-5-cyclohexylpentylamine]
[2]
  sigma-2/sigma-1 selectivity: 51
[2]; [6]
  Ki: 6.78 nM
[2]; Table 10, sigma-1/sigma-2
  S1/S2 Ratio: 0.020
[2]; Table 16, read-out: Sigma-1 IC50
  IC50: 6.8 nM
[2]; [9]
  IC50 ratio of sigma-1/sigma-2 (sigma-1 selective compounds): less than 0.1
[1]; [7]
  Ki: 346 nM
[4]
  IC50: 10.6 nM
  Ki: 10 nM

## c1ccc(CCCN2CCCCC2)cc1 [Compound 140, N-(3-phenylpropyl)piperidine]
[2]; [6]
  Ki: 48.9 nM
[1]; [7]
  Ki: 147 nM
[4]
  IC50: 69 nM

## c1ccc(CCCCN2CCC(c3ccccc3)CC2)cc1 [Compound 81]
[3]; [8]
  IC50: 43.9 nM
[4]
  IC50: 0.88 nM
